Reference: paper PMC11270798, “N ^ α -acetyl-L-ornithine deacetylase from Escherichia coli and a ninhydrin-based assay to enable inhibitor identification” (Frontiers in Chemistry, 2024)

biological target: T1, EcArgE (Escherichia coli, UniProt P23908); test: Ninhydrin-based ArgE enzyme assay (discontinuous, 570 nm); assay type: biochemical; details: not given
T1 construct: The open reading frame (ORF) of the full-length ArgE protein from E. coli was amplified; made in house; host or cells: E. coli
Procedure: A discontinuous assay was performed utilizing a Techne PCR Thermal Cycler System and assays were run with a total reaction volume of 100 µL and a final enzyme concentration of 10 nM. […] The selected inhibitors were dissolved in 50 mM KPi buffer, pH: 7.5 at 30°C and screened at 100 μM or other concentrations, depending on the type of experiment, followed by the EcArgE enzyme and incubated for 10 min. […] A 2% ninhydrin solution (50 μL) was added, and the mixture was mixed by pipetting while cooled to 0°C. The reaction was then heated to 100°C for 10 min. The absorbance of an 80 μL aliquot was recorded at 570 nm on a BioTek Synergy 2 microplate reader. The IC50 values and kinetic constants were calculated using GraphPad Prism using non-linear regression and the Michaelis-Menten equation.

| Molecule | IC50 [µM] |
| --- | --- |
| CCN(CC)c1ccc(B(O)O)cc1 [Entry 4, 4-(diethylamino)phenylboronic acid] | 50.1 |
| O=C(O)c1ccc(B(O)O)cc1 [Entry 5, 4-carboxyphenylboronic acid] | 54.1 |

same assay, conditions: 100 μM inhibitor, ninhydrin assay, substrate 3

| Molecule | inhibition at 100 µM [%] | % Inhibition at 100 μM |
| --- | --- | --- |
| N#Cc1ccc(B(O)O)cc1 [Entry 8] | 48 ± 2.6 | – |
| CC(=O)Nc1ccc(B(O)O)cc1 [Entry 13] | 24 ± 6.9 | – |
| CCN(CC)c1ccc(B(O)O)cc1 [Entry 4, 4-(diethylamino)phenylboronic acid] | 91.5 ± 1.5 | – |
| CCN(CC)c1ccc(C(=O)O)cc1 [Entry 27] | 53.4 ± 2.6 | – |
| OB(O)c1ccc(Oc2ccc(F)cc2)cc1 [Entry 18] | 9.3 ± 1.8 | – |
| OB(O)c1ccc2ccccc2c1 [Entry 24] | 16.2 ± 6.1 | – |
| OB(O)c1ccc2c(c1)OCO2 [Entry 20] | 47 ± 2.7 | – |
| OB(O)c1ccc(OC(F)(F)F)cc1 [Entry 10] | 25.5 ± 2.4 | – |
| OB(O)c1ccc(Oc2ccc(OC(F)(F)F)cc2)cc1 [Entry 17] | 36 ± 5.8 | – |
| OB(O)c1cc(C(F)(F)F)cc(C(F)(F)F)c1 [Entry 22] | 0 | lacked activity |
| OB(O)c1cccc(Cl)c1 [Entry 19] | 19.7 ± 3 | – |
| OB(O)c1ccc(O)cc1 [Entry 9] | 29.8 ± 11.2 | – |
| OB(O)c1ccc(Oc2ccccc2)cc1 [Entry 15] | 48.8 ± 2.7 | – |
| OB(O)c1ccc(F)cc1 [Entry 11] | 8.1 ± 4.1 | – |
| CN(C)c1ccc(C(=O)O)cc1 [Entry 28] | 41 ± 10.8 | – |
| OB(O)c1cccc(OCc2ccccc2)c1 [Entry 21] | 40.3 ± 6.8 | – |
| Cc1ccc(B(O)O)cc1 [Entry 7] | 59 ± 9.4 | – |
| O=C(O)c1ccc(B(O)O)cc1 [Entry 5, 4-carboxyphenylboronic acid] | 80.4 ± 3.7 | – |
| O=C(O)c1ccc([N+](=O)[O-])cc1 [Entry 26, 4-nitrobenzoic acid] | 57.9 ± 7.1 | – |
| OB(O)c1ccccc1 [Entry 3, phenylboronic acid] | 41.9 ± 1.8 | – |
| C[C@H](CS)C(=O)N1CCC[C@H]1C(=O)O [Entry 1, captopril, reference compound] | 57.8 ± 0.04 | – |
| OB(O)c1ccc(Cl)cc1 [Entry 6, 4-chlorophenylboronic acid] | 68.7 ± 1.2 | – |
| CC(=O)c1ccc(B(O)O)cc1 [Entry 12] | 15.8 ± 1.9 | – |
| OB(O)c1ccc(Oc2ccc(Cl)cc2)cc1 [Entry 16] | 55.7 ± 4.9 | – |
| OB(O)c1ccccc1C(F)(F)F [Entry 23] | 40.6 ± 9 | – |
| CS(=O)(=O)Nc1ccc(B(O)O)cc1 [Entry 14] | 23.5 ± 6.9 | – |

same assay, conditions: ArgE

| Molecule | mode of inhibition |
| --- | --- |
| C[C@H](CS)C(=O)N1CCC[C@H]1C(=O)O [Entry 1, captopril, reference compound] | […] |

test system: DapE; test: not given; set-up: method as in Gillner et al., 2009; details: ref Gillner et al., 2009; cited from earlier work

| Molecule | IC50 [µM] | mode of inhibition |
| --- | --- | --- |
| C[C@H](CS)C(=O)N1CCC[C@H]1C(=O)O [Entry 1, captopril, reference compound] | […] | […] |

biological target: T2, ArgE (Escherichia coli, UniProt P23908); test: biochemical; details: read-out: % inhibition at 2 mM

| Molecule | inhibition at 2000 µM [%] |
| --- | --- |
| NC(CO)(CO)CO [Tris] | 21.2 |

biological target: T2, ArgE; test: Cleavage of alternative substrates by ArgE; assay type: biochemical; set-up: The open reading frame (ORF) of the full-length ArgE protein from E. coli was amplified; made in house; host or cells: E. coli; details: monitoring at 225 nm
Text: Previously, Blanchard developed a simple, continuous 214 nm assay ([Javid-Majd and Blanchard, 2000]) using the endogenous substrate NAO to test potential inhibitors of ArgE. The 214 nm assay is a simple and reproducible assay but it is not useful for inhibitors that absorb strongly in the UV region, therefore excluding many drug-like molecules, as high background UV absorption would lead to greater background and obscure the actual enzyme cleavage data. […] As an alternative assay, we explored another potential substrate, p-nitrophenyl acetate, in the hope that ArgE would cleave the acetate to yield the product p-nitrophenol, but we observed no cleavage based on monitoring at 405 nm ([Means and Bender, 1975]). We also attempted the use of the DapE alternate substrate N ^6-methyl-N-succinyl-L,L-diaminopimelic acid (N ^6-methyl-SDAP) ([Heath et al., 2018]) because of the similarities between the ArgE and DapE active site structure but observed no cleavage of this synthetic substrate at 225 nm. We therefore designed a ninhydrin-based assay similar to our DapE ninhydrin-based assay ([Heath et al., 2018]) to enable the analysis of more structurally diverse inhibitors.

| Molecule | cleavage by ArgE |
| --- | --- |
| CN[C@@H](CCC[C@H](NC(=O)CCC(=O)O)C(=O)O)C(=O)O [N ^6-methyl-SDAP, N ^6-methyl-N-succinyl-L,L-diaminopimelic acid] | no cleavage |

same assay, conditions: monitoring at 405 nm

| Molecule | cleavage by ArgE |
| --- | --- |
| CC(=O)Oc1ccc([N+](=O)[O-])cc1 [p-nitrophenyl acetate] | no cleavage |

Biological target: the molecule itself
Test: crystal structure; EcArgE crystallised by sitting-drop vapor diffusion at 16°C; mono-Zn form from 1 M ammonium citrate, 0.1 M Bis-Tris propane pH 7.0; di-Zn form from 0.2 M lithium sulfate, 30% PEG 3350, 0.1 M Tris pH 8.5; dimer seen in the crystals
Details: not given

| Molecule | binding result |
| --- | --- |
| N-alpha-acetyl-L-ornithine deacetylase (ArgE) from Escherichia coli (enzyme, E. coli, UniProt P23908 1-383, looked up, N-alpha-acetyl-L-ornithine deacetylase (ArgE), Escherichia coli, full-length ORF amplified from genomic DNA; catalytic domain residues 1-179 and 305-383, dimerization domain residues 180-304; Crystallised in a mono-zinc form (PDB 7RSF) and a di-zinc form (PDB 8UW6); same protein and purification for both; Three N-terminal residues are not modelled in the structures; also called EcArgE; E. coli …) MKNKLPPFIEIYRALIATPSISATEEALDQSNADLITLLADWFKDLGFNVEVQPVPGTRNKFNMLASIGQGAGGLLLAGHTDTVPFDDGRWTRDPFTLTEHDGKLYGLGTADMKGFFAFILDALRDVDVTKLKKPLYILATADEETSMAGARYFAETTALRPDCAIIGEPTSLQPVRAHKGHISNAIRIQGQSGHSSDPARGVNAIELMHDAIGHILQLRDNLKERYHYEAFTVPYPTLNLGHIHGGDASNRICACCELHMDIRPLPGMTLNELNGLLNDALAPVSERWPGRLTVDELHPPIPGYECPPNHQLVEVVEKLLGAKTEVVNYCTEAPFIQTLCPTLVLGPGSINQAHQPDEYLETRFIKPTRELITQVIHHFCWH | binds |
